Laboratory results as given in ChEMBL document CHEMBL1201862, “PubChem BioAssay data set” (2004).
The source made the active and inactive calls.

What was measured:
[1] = A Cell Based Secondary Assay To Explore Cytotoxicity of Compounds that Sensitize Mycobacterium Tuberculosis to Beta-Lactam Antibiotics.; format: functional
[2] = M. tuberculosis H37Rv growth inhibitors, H37Rv strain (AID 1626); format: functional
[3] = growth suppression of PTEN-null colon cells, dose response, cell-based, HCT116 PTEN knockout (AID 1047); format: functional;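 note: HCT116 colon tumor cells with PTEN knocked out; cells exposed to compound for 60 hours before readout; potency for loss of cell viability measured by luminescence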
[4] = growth suppression of beta-catenin-knockout colon cells, dose response, cell-based, HCT116, human colon tumor (AID 1045); format: functional;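 note: HCT116 colon tumor cells with beta catenin knocked out; cells exposed to compound for 60 hours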
[5] = biological target: Neurotensin receptor type 1 (Homo sapiens, UniProt P30989); format: functional;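 note: Image-based confirmatory dose-response assay measuring agonist activity at NTR1; NTR1-expressing U2OS osteosarcoma cells imaged for beta-arrestin GFP spot formation; agonist potency where compounds increase beta-arrestin recruitment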
[6] = A549 cell cytotoxicity, dose response, cytotoxicity control, plate reader, cherry-pick, antagonist series (AID 743412); format: functional, cell-based
[7] = HepG2 cell cytotoxicity, dose response, cytotoxicity control, plate reader, cherry-pick, antagonist series (AID 743416); format: functional, cell-based
[8] = LGR2 antagonists, dose response, cell-based, HEK293, CRE-luciferase reporter, cherry pick, set 2 (AID 743343); format: functional;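 note: transfected cells were stimulated with diluted bursicon conditioned medium after compound addition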
[9] = MC4R antagonists, dose response, counter-screen for LGR2 antagonist project, cell-based, plate reader, cherry pick (AID 743444); format: functional;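 note: transfected HEK 293 cells stimulated with alpha-MSH peptide; potency of inhibitors of the alpha-MSH evoked signal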
[10] = HEK293 cell cytotoxicity, dose response, cytotoxicity control, plate reader, cherry-picked samples (AID 743446); format: functional, cell-based
[11] = biological target: T1, Neuropeptide Y receptor type 2 (Homo sapiens, UniProt P49146); experiment: NPY-Y2 antagonist potency, selectivity check, dose response, counter-screen for NPY-Y1 antagonist project, cell-based (AID 1278); format: functional
T1 sequence (P49146 whole entry): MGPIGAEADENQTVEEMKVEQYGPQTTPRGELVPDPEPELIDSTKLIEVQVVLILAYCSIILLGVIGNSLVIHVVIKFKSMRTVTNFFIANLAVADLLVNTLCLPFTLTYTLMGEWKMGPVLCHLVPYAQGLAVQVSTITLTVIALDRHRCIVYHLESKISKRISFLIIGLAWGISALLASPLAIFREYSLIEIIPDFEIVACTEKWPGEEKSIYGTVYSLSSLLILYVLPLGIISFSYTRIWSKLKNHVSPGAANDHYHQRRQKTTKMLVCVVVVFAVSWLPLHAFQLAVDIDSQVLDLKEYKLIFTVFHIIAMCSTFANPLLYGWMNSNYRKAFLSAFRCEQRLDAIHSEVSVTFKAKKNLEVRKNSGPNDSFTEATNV

[12] = biological target: T2, Neuropeptide Y receptor type 1 (Homo sapiens, UniProt P25929); experiment: NPY-Y1 receptor antagonist potency, dose response, cell-based (AID 1277); format: functional
T2 sequence (P25929 whole entry): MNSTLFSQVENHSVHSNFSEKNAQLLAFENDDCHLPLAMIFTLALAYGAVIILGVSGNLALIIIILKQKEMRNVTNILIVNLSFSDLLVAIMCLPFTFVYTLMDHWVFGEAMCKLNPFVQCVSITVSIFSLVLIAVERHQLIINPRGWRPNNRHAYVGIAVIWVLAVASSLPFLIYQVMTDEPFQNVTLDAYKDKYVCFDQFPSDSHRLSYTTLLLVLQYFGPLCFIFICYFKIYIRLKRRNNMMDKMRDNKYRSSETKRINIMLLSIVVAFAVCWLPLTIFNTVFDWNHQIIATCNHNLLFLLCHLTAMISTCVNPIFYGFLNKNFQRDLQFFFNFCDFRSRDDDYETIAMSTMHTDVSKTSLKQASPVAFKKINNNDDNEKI

[13] = biological target: Induced myeloid leukemia cell differentiation protein Mcl-1 (Homo sapiens, UniProt Q07820); experiment: MCL1-BIM BH3 interaction inhibitors, dose response, biochemical, fluorescence polarization, BIM-BH3 peptide, 1536-well (AID 2217)
[14] = biological target: Bcl-2-like protein 1 (Homo sapiens, UniProt Q07817); experiment: BCL-XL inhibitors, dose response, selectivity assay for MCL1 inhibitor project, biochemical, fluorescence polarization, 1536-well (AID 2218)
[15] = biological target: Intestinal-type alkaline phosphatase (Mus musculus, UniProt P24822); experiment: PubChem AID 488785; format: functional
[16] = biological target: T3, Alkaline phosphatase, tissue-nonspecific isozyme (Homo sapiens, UniProt P05186); experiment: TNAP enzyme inhibition by screening hits, dose response, selectivity assay for mouse IAP inhibitor project, biochemical, human TNAP, uHTS hits (AID 488906); format: functional
T3 sequence (P05186 whole entry): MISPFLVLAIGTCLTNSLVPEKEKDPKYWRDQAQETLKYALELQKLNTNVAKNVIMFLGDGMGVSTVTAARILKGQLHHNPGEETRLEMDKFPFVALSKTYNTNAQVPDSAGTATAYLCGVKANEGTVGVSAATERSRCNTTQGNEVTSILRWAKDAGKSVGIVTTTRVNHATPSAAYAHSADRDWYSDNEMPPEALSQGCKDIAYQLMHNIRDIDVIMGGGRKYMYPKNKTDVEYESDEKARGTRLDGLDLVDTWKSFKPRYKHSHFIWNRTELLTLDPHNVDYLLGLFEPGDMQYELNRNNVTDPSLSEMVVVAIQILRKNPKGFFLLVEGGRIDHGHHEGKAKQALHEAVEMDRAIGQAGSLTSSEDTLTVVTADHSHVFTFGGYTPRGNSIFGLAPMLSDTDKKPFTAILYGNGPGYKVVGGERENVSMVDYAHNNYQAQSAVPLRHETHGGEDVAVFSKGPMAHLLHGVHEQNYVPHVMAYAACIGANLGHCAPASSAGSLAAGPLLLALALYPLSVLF

[17] = biological target: Intestinal-type alkaline phosphatase (Homo sapiens, UniProt P09923); experiment: inhibition of human intestinal alkaline phosphatase – biochemical, dose response (AID 488876); format: functional
[18] = biological target: T4, Histone-lysine N-methyltransferase NSD2 (Homo sapiens, UniProt O96028); format: biochemical
T4 sequence (O96028 whole entry): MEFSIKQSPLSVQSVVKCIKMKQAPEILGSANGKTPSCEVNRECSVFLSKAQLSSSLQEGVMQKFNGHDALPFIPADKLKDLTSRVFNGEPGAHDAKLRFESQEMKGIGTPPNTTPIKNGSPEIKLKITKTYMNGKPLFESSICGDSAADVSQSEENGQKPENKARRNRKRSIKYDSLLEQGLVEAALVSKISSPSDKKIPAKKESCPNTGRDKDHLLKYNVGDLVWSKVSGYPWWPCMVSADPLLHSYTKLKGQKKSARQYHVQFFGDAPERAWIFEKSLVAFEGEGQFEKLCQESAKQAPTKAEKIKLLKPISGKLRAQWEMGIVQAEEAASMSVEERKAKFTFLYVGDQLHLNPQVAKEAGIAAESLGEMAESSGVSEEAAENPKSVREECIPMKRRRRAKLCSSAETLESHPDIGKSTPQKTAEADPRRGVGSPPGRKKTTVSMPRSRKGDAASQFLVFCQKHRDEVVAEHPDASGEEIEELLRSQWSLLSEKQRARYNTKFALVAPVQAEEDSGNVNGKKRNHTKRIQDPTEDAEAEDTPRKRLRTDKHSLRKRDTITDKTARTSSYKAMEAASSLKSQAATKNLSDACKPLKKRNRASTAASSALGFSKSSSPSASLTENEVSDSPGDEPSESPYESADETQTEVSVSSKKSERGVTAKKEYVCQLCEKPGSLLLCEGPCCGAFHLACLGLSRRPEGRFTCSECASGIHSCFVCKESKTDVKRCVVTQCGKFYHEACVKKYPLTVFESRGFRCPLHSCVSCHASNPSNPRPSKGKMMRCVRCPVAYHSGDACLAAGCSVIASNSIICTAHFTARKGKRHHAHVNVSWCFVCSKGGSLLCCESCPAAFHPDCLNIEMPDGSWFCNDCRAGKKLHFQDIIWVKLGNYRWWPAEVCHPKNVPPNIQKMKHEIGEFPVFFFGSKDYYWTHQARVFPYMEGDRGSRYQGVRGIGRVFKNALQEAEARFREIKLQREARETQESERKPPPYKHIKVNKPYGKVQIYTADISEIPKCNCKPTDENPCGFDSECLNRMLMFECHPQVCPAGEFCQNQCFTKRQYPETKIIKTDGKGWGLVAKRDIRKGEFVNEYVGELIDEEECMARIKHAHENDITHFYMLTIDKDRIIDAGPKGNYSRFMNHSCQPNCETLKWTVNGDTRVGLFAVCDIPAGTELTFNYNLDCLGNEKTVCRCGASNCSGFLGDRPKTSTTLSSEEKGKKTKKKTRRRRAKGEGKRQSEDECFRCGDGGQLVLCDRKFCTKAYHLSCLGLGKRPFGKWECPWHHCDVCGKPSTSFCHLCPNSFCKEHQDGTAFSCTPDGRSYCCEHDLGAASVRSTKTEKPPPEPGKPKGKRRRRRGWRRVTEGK

[19] = biological target: NAD-dependent protein deacylase sirtuin-5, mitochondrial (Homo sapiens, UniProt Q9NXA8); experiment: SIRT5 desuccinylase inhibitors, dose response, biochemical, fluorescence imaging, cherry-pick, set 5 (AID 720591);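 note: desuccinylation of succinyl peptide AMC substrate read as fluorescence after trypsin release; potency of inhibitors that lower fluorescence and may act on trypsin instead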
[20] = biological target: Voltage-gated inwardly rectifying potassium channel KCNH2 (Homo sapiens, UniProt Q12809); experiment: hERG protection from proarrhythmic block, potency, dose response, cell-based, thallium flux (AID 2121); format: ADME
[21] = biological target: Eukaryotic translation initiation factor 4E (Mus musculus, UniProt P63073); experiment: eIF4E–eIF4G protein interaction inhibitors, dose response, biochemical, TR-FRET (AID 855); format: functional;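 note: potency for disrupting eIF4E binding to eIF4GI seen as loss of FRET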
[22] = biological target: T5, Carboxy-terminal domain RNA polymerase II polypeptide A small phosphatase 1 (Homo sapiens, UniProt Q9GZU7); experiment: inhibitors of CTDSP1, concentration-response testing, biochemical assay, absorbance-based, actives from ultra-high-throughput screening (AID 540297); format: functional
T5 sequence (Q9GZU7 whole entry): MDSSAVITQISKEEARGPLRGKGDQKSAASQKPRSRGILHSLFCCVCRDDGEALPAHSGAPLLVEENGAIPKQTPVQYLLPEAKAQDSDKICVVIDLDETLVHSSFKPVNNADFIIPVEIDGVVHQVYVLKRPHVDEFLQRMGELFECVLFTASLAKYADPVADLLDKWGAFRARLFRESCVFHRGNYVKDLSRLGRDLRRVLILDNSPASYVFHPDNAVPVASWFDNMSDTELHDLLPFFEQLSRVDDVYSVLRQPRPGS

[23] = biological target: Cytochrome P450 2C19 (Homo sapiens, UniProt P33261); experiment: Cytochrome panel assay with activity outcomes. Panel member name: p450-cyp2c19 Compounds with AC50 equal or less than 10 uM are considered active; format: functional; details: read-out: AC50
[24] = biological target: T6, Protein skinhead-1 (Caenorhabditis elegans, UniProt P34707); format: functional
T6 sequence (P34707 whole entry): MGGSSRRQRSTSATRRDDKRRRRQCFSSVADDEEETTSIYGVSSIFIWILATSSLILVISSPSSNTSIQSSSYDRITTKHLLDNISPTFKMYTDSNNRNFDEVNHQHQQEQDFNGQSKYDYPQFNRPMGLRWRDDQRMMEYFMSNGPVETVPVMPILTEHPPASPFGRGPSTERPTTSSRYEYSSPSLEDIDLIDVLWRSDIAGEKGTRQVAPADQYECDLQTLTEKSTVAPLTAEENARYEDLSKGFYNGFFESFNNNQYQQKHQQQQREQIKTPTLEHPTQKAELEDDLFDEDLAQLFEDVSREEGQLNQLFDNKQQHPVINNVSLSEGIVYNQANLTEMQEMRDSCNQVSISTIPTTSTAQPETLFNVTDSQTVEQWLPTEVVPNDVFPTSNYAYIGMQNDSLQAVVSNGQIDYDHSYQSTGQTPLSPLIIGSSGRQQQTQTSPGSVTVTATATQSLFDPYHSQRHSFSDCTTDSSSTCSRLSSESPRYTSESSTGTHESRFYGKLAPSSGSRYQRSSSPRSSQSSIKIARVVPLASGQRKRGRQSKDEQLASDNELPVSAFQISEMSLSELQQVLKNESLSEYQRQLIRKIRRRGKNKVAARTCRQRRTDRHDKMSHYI

[25] = biological target: Cytochrome P450 3A4 (Homo sapiens, UniProt P08684);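 note: CYP3A4 tested as one member of a cytochrome P450 panel screen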
[26] = biological target: Cytochrome P450 2C9 (Homo sapiens, UniProt P11712)

Chain of Induced myeloid leukemia cell differentiation protein Mcl-1 (Q07820 whole entry): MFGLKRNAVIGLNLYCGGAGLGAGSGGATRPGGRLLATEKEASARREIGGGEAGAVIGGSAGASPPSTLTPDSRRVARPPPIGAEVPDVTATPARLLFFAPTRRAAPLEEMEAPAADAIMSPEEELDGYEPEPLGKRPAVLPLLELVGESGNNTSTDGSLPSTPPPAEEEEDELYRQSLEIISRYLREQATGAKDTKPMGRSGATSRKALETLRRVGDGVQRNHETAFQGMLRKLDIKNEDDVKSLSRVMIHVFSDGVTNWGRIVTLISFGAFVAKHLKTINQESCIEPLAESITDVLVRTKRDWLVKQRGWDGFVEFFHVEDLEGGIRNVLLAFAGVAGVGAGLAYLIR
Chain of Bcl-2-like protein 1 (Q07817 whole entry): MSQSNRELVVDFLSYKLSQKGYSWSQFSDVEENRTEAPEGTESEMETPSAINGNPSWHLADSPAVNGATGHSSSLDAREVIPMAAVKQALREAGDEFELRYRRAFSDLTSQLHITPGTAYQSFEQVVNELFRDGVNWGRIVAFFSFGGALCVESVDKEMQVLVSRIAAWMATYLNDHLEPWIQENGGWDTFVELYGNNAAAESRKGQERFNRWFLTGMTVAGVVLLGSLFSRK
Chain of Voltage-gated inwardly rectifying potassium channel KCNH2 (Q12809 whole entry): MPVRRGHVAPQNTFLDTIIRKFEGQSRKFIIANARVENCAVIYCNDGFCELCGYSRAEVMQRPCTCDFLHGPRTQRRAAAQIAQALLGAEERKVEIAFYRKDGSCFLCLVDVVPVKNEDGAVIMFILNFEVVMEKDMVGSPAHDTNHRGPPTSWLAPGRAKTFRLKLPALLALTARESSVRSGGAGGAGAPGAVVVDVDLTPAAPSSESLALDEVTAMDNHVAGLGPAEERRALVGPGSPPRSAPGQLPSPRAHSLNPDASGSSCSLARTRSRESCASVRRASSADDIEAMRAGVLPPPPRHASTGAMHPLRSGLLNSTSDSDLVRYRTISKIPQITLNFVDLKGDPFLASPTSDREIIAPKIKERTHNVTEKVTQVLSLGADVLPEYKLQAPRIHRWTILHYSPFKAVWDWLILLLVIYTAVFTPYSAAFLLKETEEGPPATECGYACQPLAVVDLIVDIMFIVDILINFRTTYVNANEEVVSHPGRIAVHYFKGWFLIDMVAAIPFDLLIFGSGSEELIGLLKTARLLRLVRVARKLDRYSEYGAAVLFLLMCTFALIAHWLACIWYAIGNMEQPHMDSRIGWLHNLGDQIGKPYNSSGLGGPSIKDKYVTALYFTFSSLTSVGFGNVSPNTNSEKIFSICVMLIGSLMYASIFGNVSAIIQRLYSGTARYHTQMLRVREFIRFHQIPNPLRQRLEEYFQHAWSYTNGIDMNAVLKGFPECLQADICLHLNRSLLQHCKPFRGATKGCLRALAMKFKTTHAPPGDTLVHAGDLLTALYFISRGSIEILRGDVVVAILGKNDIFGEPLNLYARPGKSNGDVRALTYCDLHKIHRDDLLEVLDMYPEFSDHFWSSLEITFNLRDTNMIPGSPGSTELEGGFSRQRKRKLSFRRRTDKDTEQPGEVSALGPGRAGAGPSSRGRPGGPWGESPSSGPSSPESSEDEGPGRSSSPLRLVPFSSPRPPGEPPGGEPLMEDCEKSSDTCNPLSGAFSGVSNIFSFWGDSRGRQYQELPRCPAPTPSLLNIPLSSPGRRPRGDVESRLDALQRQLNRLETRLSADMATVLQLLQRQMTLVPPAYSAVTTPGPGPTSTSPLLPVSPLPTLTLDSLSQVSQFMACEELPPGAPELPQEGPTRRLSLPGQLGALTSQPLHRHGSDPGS
Chain of Intestinal-type alkaline phosphatase (Mus musculus, UniProt P24822) (P24822 whole entry): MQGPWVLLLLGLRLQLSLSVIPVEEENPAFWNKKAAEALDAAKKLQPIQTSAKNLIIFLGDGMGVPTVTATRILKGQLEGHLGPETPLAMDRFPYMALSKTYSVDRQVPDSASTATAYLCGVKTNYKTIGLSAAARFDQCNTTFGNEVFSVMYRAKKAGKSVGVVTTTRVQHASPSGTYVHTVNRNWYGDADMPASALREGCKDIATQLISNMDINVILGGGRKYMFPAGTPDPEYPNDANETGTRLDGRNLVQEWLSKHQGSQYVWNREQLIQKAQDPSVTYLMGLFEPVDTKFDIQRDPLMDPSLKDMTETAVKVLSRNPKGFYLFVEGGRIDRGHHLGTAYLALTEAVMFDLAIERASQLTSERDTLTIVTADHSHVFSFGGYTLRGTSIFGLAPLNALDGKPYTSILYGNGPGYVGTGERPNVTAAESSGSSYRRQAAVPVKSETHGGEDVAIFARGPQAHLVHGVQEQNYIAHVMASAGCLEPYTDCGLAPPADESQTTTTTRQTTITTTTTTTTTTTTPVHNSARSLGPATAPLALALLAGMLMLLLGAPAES
Chain of Intestinal-type alkaline phosphatase (Homo sapiens, UniProt P09923) (P09923 whole entry): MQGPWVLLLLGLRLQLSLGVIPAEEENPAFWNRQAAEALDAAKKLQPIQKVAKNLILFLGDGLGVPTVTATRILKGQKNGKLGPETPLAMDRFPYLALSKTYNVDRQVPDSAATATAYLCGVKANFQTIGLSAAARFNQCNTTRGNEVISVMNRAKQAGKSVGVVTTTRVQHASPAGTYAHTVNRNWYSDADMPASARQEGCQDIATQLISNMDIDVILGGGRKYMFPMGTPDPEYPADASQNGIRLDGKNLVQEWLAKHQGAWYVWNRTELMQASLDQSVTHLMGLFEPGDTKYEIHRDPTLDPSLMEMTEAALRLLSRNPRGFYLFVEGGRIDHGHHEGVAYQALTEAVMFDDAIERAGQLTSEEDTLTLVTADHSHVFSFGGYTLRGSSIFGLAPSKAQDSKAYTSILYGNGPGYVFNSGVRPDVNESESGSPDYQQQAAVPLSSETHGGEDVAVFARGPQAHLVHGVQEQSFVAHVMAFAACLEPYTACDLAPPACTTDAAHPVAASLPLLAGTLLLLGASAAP
Chain of Cytochrome P450 3A4 (P08684 whole entry): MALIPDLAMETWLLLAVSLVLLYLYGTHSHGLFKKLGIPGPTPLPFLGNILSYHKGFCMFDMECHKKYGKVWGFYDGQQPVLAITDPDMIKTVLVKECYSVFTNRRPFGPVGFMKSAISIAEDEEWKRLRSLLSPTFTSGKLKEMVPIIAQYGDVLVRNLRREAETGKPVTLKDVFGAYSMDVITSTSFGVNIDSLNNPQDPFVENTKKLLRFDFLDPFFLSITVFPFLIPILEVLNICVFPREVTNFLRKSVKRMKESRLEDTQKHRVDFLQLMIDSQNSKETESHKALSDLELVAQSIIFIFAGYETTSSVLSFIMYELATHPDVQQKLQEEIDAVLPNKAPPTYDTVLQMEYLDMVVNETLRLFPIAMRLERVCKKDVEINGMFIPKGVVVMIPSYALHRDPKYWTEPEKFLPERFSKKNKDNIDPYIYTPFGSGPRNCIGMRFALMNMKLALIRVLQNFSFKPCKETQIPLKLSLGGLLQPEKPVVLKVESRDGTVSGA
Chain of NAD-dependent protein deacylase sirtuin-5, mitochondrial (Q9NXA8 whole entry): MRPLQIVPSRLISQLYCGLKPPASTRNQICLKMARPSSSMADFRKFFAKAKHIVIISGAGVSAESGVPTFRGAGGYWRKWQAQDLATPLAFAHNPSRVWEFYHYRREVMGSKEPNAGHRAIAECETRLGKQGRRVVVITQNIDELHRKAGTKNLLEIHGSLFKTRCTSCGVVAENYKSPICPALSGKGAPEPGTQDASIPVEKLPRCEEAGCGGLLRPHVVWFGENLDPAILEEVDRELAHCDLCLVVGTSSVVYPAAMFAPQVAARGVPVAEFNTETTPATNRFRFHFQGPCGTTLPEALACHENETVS
Chain of Neurotensin receptor type 1 (P30989 whole entry): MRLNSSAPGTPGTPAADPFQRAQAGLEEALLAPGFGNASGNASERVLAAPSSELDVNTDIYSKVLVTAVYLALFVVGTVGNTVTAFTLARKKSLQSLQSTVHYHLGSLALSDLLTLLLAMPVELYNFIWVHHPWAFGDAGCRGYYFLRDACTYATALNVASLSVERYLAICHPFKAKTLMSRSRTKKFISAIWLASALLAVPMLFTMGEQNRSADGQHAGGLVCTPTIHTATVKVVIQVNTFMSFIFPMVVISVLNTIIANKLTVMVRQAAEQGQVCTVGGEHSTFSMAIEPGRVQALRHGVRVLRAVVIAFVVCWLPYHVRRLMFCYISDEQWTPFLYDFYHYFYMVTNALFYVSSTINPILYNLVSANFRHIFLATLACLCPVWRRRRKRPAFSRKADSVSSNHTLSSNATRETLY
Chain of Eukaryotic translation initiation factor 4E (P63073 whole entry, the tested form may be a part): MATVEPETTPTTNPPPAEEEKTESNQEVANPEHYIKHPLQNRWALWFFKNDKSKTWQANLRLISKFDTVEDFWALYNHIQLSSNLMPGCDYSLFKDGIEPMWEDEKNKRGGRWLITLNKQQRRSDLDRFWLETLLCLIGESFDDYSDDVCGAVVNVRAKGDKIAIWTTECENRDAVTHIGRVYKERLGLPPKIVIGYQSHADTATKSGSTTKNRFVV
Chain of Cytochrome P450 2C19 (P33261 whole entry): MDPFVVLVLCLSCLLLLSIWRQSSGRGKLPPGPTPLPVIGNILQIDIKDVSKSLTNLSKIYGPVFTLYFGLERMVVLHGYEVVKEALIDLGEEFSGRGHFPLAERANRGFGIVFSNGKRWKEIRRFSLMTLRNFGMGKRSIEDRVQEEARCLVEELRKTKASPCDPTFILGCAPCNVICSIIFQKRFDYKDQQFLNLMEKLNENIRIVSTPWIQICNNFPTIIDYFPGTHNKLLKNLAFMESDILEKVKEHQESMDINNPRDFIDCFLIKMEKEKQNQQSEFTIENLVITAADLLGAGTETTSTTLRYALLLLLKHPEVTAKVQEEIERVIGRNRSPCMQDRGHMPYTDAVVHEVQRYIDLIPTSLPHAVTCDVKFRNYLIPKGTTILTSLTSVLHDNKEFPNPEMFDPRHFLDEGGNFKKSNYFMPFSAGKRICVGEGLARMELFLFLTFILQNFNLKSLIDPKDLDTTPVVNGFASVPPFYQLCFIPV

Sc1ncnc2scc(-c3ccc(Br)cc3)c12
CC50 [1]: 25.9 µM (active)
IC50 [2]: > 100 µM (active)

CC(C)C(=O)N1CCN(c2ccc(NC(=O)c3ccc4c(c3)OCCO4)cc2Cl)CC1
IC50 [2]: > 100 µM (active)
EC50 [3]: 9.21 µM (active)
EC50 [4]: 9.2 µM (active)
EC50 [5]: 18.5 µM (active)
AC50 [6]: 22.6 µM (active)
AC50 [7]: 17.7 µM (active)
AC50 [8]: 16 µM (active)
AC50 [9]: 19.1 µM (active)
AC50 [10]: 10.7 µM (active)

CCC(C)(C(=O)NC1CCCC1)N(Cc1ccco1)C(=O)Cc1cccs1 (stereo not given)
IC50 [11]: > 35 µM (not active)
IC50 [12]: > 35 µM (not active)

N#Cc1c(SCC(=O)Nc2nncs2)sc2c(O)cc(=O)[nH]c12
IC50 [13]: 25.3 µM (not active)
IC50 [14]: 96.5 µM (not active)
IC50 [15]: 2.3 µM (active)
IC50 [16]: > 100 µM (inactive)
IC50 [17]: > 100 µM (inactive)
AC50 [18]: 6.29 µM (active)
AC50 [19]: 4.58 µM (active)

CCN(C(=O)C(C)N1C(=O)/C(=C/c2ccco2)SC1=S)C1CCS(=O)(=O)C1 (stereo not given)
IC50 [13]: > 12.1 µM (not active)
IC50 [14]: > 109 µM (not active)
IC50 [15]: 0.419 µM (active)
IC50 [16]: 11.1 µM (active)
IC50 [17]: 3.79 µM (active)

O=C1C2CC=CCC2C(=O)N1c1ccc(Cc2ccncc2)cc1 (stereo not given)
EC50 [20]: 0.86 µM (active)

O=C(/C=C/c1ccco1)N(c1ccccn1)c1ccccn1
IC50 [13]: 19.8 µM (not active)
IC50 [14]: > 109 µM (not active)
IC50 [21]: 50 µM (inactive)
IC50 [22]: 3.29 µM (active)

Cc1ccc(NC(=S)c2nc3ccccc3s2)cc1
EC50 [20]: 0.46 µM (active)
AC50 [23]: 0.0251 µM (inconclusive)
IC50 [24]: > 100 µM (inactive)
AC50 [25]: 22.4 µM (inconclusive)
AC50 [26]: 10 µM (inconclusive)

CC(C)(C)NCc1cc(Br)ccc1OC1CCCC1
IC50 [11]: 11.2 µM (not active)
IC50 [12]: 7.43 µM (active)

CCOC(=O)C1(CCCc2ccccc2)CCN(C2CCSCC2)CC1
IC50 [11]: > 35 µM (not active)
IC50 [12]: 16.7 µM (not active)

N#Cc1ccc(/C=C/C(=O)c2ccc3c(c2)OCO3)cc1
IC50 [2]: > 100 µM (active)
